Assay results from ChEMBL document CHEMBL3272271, “Folate antagonists. 13. 2,4-Diamino-6-](alpha,alpha,alpha-trifluoro-m-tolyl)thio]quinazoline and related 2,4-diamino-6-[(phenyl- and naphthyl)thio]quinazolines, a unique class of antimetabolites with extraordinary antimalarial and antibacterial effects” (J Med Chem, 1978).
Converted amounts (≈) assume the structure as drawn. The source made the active and inactive calls. The calls are words filed in the database; no cut-off is given here.

Tests used:
Plasmodium gallinaceum [1] = assay: Antimalarial activity against trophozoite-induced Plasmodium gallinaceum infected in white leghorn chicken assessed as disease cure from parasite infection at 320 mg/kg, sc administered 72 hrs after infection; type: functional, organism-based; set-up: dose 320 mg/kg
Enterococcus faecalis = assay: Antibacterial activity against Streptococcus faecalis MGH-2 by gradient plate test; type: functional
Staphylococcus aureus [2] = assay: Antibacterial activity against Staphylococcus aureus UC-96 by gradient plate test; type: functional
Staphylococcus aureus [3] = assay: Antibacterial activity against drug-resistant Staphylococcus aureus S18713 by gradient plate test; type: functional
Pseudomonas aeruginosa = assay: Antibacterial activity against Pseudomonas aeruginosa 28 by gradient plate test; type: functional
Escherichia coli = assay: Antibacterial activity against Escherichia coli Vogel by gradient plate test; type: functional
Shigella sonnei = assay: Antibacterial activity against Shigella sonnei C-10 by gradient plate test; type: functional
Plasmodium gallinaceum [4] = assay: Antimalarial activity against sporozoite-induced Plasmodium gallinaceum infected in white leghorn chicken assessed as disease cure from parasite infection at 480 mg/kg, sc administered 72 hrs after infection; type: functional, organism-based; set-up: dose 480 mg/kg
Gallus gallus = assay: Toxicity in sporozoite-induced Plasmodium gallinaceum infected white leghorn chicken assessed as mortality at 480 mg/kg, sc administered 72 hrs after infection measured up to 6 days; type: organism-based; set-up: dose 480 mg/kg, route subcutaneous; settings: in vivo
Plasmodium gallinaceum [5] = assay: Antimalarial activity against sporozoite-induced Plasmodium gallinaceum infected in white leghorn chicken assessed as disease cure from parasite infection at 240 mg/kg, sc administered 72 hrs after infection; type: functional, organism-based; set-up: dose 240 mg/kg
Plasmodium gallinaceum [6] = assay: Antimalarial activity against sporozoite-induced Plasmodium gallinaceum infected in white leghorn chicken assessed as disease cure from parasite infection at 120 mg/kg, sc administered 72 hrs after infection; type: functional, organism-based; set-up: dose 120 mg/kg
Plasmodium gallinaceum [7] = assay: Antimalarial activity against sporozoite-induced Plasmodium gallinaceum infected in white leghorn chicken assessed as disease cure from parasite infection at 60 mg/kg, sc administered 72 hrs after infection; type: functional, organism-based; set-up: dose 60 mg/kg
Plasmodium berghei [8] = assay: Antimalarial activity against Plasmodium berghei infected in mouse assessed as increase in mean survival days of host at 80 mg/kg, sc administered 72 hrs after infection relative to control; type: functional; settings: route subcutaneous
Plasmodium berghei [9] = assay: Antimalarial activity against Plasmodium berghei infected in mouse assessed as increase in mean survival days of host at 40 mg/kg, sc administered 72 hrs after infection relative to control; type: functional; settings: route subcutaneous
Plasmodium berghei [10] = assay: Antimalarial activity against Plasmodium berghei infected in mouse assessed as increase in mean survival days of host at 20 mg/kg, sc administered 72 hrs after infection relative to control; type: functional; settings: route subcutaneous
Plasmodium berghei [11] = assay: Antimalarial activity against Plasmodium berghei infected in mouse assessed as increase in mean survival days of host at 10 mg/kg, sc administered 72 hrs after infection relative to control; type: functional; settings: route subcutaneous
Plasmodium berghei [12] = assay: Antimalarial activity against Plasmodium berghei infected in mouse assessed as disease cure from parasite infection at 640 mg/kg, sc administered 72 hrs after infection; type: functional, organism-based; set-up: dose 640 mg/kg
Plasmodium berghei [13] = assay: Antimalarial activity against Plasmodium berghei infected in mouse assessed as disease cure from parasite infection at 320 mg/kg, sc administered 72 hrs after infection; type: functional, organism-based; set-up: dose 320 mg/kg
Plasmodium berghei [14] = assay: Antimalarial activity against Plasmodium berghei infected in mouse assessed as disease cure from parasite infection at 160 mg/kg, sc administered 72 hrs after infection; type: functional, organism-based; set-up: dose 160 mg/kg
Plasmodium berghei [15] = assay: Antimalarial activity against Plasmodium berghei infected in mouse assessed as disease cure from parasite infection at 80 mg/kg, sc administered 72 hrs after infection; type: functional, organism-based; set-up: dose 80 mg/kg
Plasmodium berghei [16] = assay: Antimalarial activity against trophozoite-induced Plasmodium berghei infected in mouse assessed as daily dose required to suppression of 90% parasite infection administered with diet for 6 days; type: functional
Plasmodium berghei [17] = assay: Ratio of quinine hydrochloride SD90 to compound SD90 for trophozoite-induced Plasmodium berghei infected in mouse assessed as daily dose required to suppression of 90% parasite infection administered with diet for 6 days; type: functional
Plasmodium gallinaceum [18] = assay: Antimalarial activity against trophozoite-induced Plasmodium gallinaceum infected in white leghorn chicken assessed as increase in mean survival days of host at 320 mg/kg, sc administered 72 hrs after infection relative to control; type: functional; settings: route subcutaneous
Plasmodium gallinaceum [19] = assay: Antimalarial activity against trophozoite-induced Plasmodium gallinaceum infected in white leghorn chicken assessed as increase in mean survival days of host at 160 mg/kg, sc administered 72 hrs after infection relative to control; type: functional; settings: route subcutaneous
Plasmodium gallinaceum [20] = assay: Antimalarial activity against trophozoite-induced Plasmodium gallinaceum infected in white leghorn chicken assessed as increase in mean survival days of host at 80 mg/kg, sc administered 72 hrs after infection relative to control; type: functional; settings: route subcutaneous
Plasmodium gallinaceum [21] = assay: Antimalarial activity against trophozoite-induced Plasmodium gallinaceum infected in white leghorn chicken assessed as increase in mean survival days of host at 40 mg/kg, sc administered 72 hrs after infection relative to control; type: functional; settings: route subcutaneous
Plasmodium gallinaceum [22] = assay: Antimalarial activity against trophozoite-induced Plasmodium gallinaceum infected in white leghorn chicken assessed as increase in mean survival days of host at 20 mg/kg, sc administered 72 hrs after infection relative to control; type: functional; settings: route subcutaneous
Plasmodium gallinaceum [23] = assay: Antimalarial activity against trophozoite-induced Plasmodium gallinaceum infected in white leghorn chicken assessed as increase in mean survival days of host at 10 mg/kg, sc administered 72 hrs after infection relative to control; type: functional; settings: route subcutaneous
Plasmodium gallinaceum [24] = assay: Antimalarial activity against sporozoite-induced Plasmodium gallinaceum infected in white leghorn chicken assessed as increase in mean survival days of host at 30 mg/kg, sc administered 72 hrs after infection relative to control; type: functional; settings: route subcutaneous
Plasmodium gallinaceum [25] = assay: Antimalarial activity against sporozoite-induced Plasmodium gallinaceum infected in white leghorn chicken assessed as disease cure from parasite infection at 30 mg/kg, sc administered 72 hrs after infection; type: functional, organism-based; set-up: dose 30 mg/kg
Plasmodium gallinaceum [26] = assay: Antimalarial activity against sporozoite-induced Plasmodium gallinaceum infected in white leghorn chicken assessed as increase in mean survival days of host at 15 mg/kg, sc administered 72 hrs after infection relative to control; type: functional; settings: route subcutaneous
Plasmodium gallinaceum [27] = assay: Antimalarial activity against sporozoite-induced Plasmodium gallinaceum infected in white leghorn chicken assessed as disease cure from parasite infection at 15 mg/kg, sc administered 72 hrs after infection; type: functional, organism-based; set-up: dose 15 mg/kg
Plasmodium berghei [28] = assay: Antimalarial activity against Plasmodium berghei infected in mouse assessed as increase in mean survival days of host at 160 mg/kg, sc administered 72 hrs after infection relative to control; type: functional; settings: route subcutaneous
Plasmodium berghei [29] = assay: Antimalarial activity against Plasmodium berghei infected in mouse assessed as increase in mean survival days of host at 5 mg/kg, sc administered 72 hrs after infection relative to control; type: functional; settings: route subcutaneous
Plasmodium berghei [30] = assay: Antimalarial activity against Plasmodium berghei infected in mouse assessed as increase in mean survival days of host at 2.5 mg/kg, sc administered 72 hrs after infection relative to control; type: functional; settings: route subcutaneous
Plasmodium gallinaceum [31] = assay: Antimalarial activity against trophozoite-induced Plasmodium gallinaceum infected in white leghorn chicken assessed as disease cure from parasite infection at 160 mg/kg, sc administered 72 hrs after infection; type: functional, organism-based; set-up: dose 160 mg/kg
Plasmodium berghei [32] = assay: Antimalarial activity against Plasmodium berghei infected in mouse assessed as increase in mean survival days of host at 1.25 mg/kg, sc administered 72 hrs after infection relative to control; type: functional; settings: route subcutaneous
Plasmodium berghei [33] = assay: Antimalarial activity against Plasmodium berghei infected in mouse assessed as disease cure from parasite infection at 40 mg/kg, sc administered 72 hrs after infection; type: functional, organism-based; set-up: dose 40 mg/kg
Mus musculus = assay: Toxicity in Plasmodium berghei infected mouse assessed as mortality at 640 mg/kg, sc administered 72 hrs after infection measured after 2 to 5 days; type: organism-based; set-up: dose 640 mg/kg, route subcutaneous; settings: in vivo
Plasmodium gallinaceum [34] = assay: Antimalarial activity against trophozoite-induced Plasmodium gallinaceum infected in white leghorn chicken assessed as increase in mean survival days of host at 5 mg/kg, sc administered 72 hrs after infection relative to control; type: functional; settings: route subcutaneous
Plasmodium gallinaceum [35] = assay: Antimalarial activity against trophozoite-induced Plasmodium gallinaceum infected in white leghorn chicken assessed as increase in mean survival days of host at 2.5 mg/kg, sc administered 72 hrs after infection relative to control; type: functional; settings: route subcutaneous
Plasmodium gallinaceum [36] = assay: Antimalarial activity against trophozoite-induced Plasmodium gallinaceum infected in white leghorn chicken assessed as increase in mean survival days of host at 1.25 mg/kg, sc administered 72 hrs after infection relative to control; type: functional; settings: route subcutaneous
Plasmodium gallinaceum [37] = assay: Antimalarial activity against trophozoite-induced Plasmodium gallinaceum infected in white leghorn chicken assessed as increase in mean survival days of host at 0.63 mg/kg, sc administered 72 hrs after infection relative to control; type: functional; settings: route subcutaneous
[38] = system: Mycobacterium tuberculosis; assay: Antibacterial activity against Mycobacterium tuberculosis H37Ra by gradient plate test; type: functional

Structure (SMILES)	MIC (Enterococcus faecalis)	MIC (Staphylococcus aureus [2])	MIC (Staphylococcus aureus [3])	MIC (Pseudomonas aeruginosa)	MIC (Escherichia coli)	MIC (Shigella sonnei)	Activity (Plasmodium gallinaceum [4])	Activity (Plasmodium gallinaceum [5])	Activity (Plasmodium gallinaceum [6])	Activity (Plasmodium gallinaceum [7])	MST (Plasmodium berghei [8])	MST (Plasmodium berghei [9])	MST (Plasmodium berghei [10])	MST (Plasmodium berghei [11])	Activity (Plasmodium berghei [12])	Activity (Plasmodium berghei [13])	Activity (Plasmodium berghei [14])	Activity (Plasmodium berghei [15])	MST (Plasmodium gallinaceum [22])	MST (Plasmodium gallinaceum [23])	also measured
Cc1ccc(Sc2ccc3nc(N)nc(N)c3c2)cc1	< 0.25 µg/mL	< 0.25 µg/mL	< 0.25 µg/mL	> 25 µg/mL	< 0.25 µg/mL	0.5 µg/mL (≈ 1.77 µM)	Active	Active	Active	Active	9.7 days	7.1 days	3.9 days	2.5 days	Active	Active	Active	Active	7.6 days	4.6 days	Activity (Plasmodium gallinaceum [1]): Active; Activity (Gallus gallus): Toxic; SD90 (Plasmodium berghei [16]): 7.2 mg/kg/day; Ratio (Plasmodium berghei [17]): 10; MST (Plasmodium gallinaceum [18]): 20 days; MST (Plasmodium gallinaceum [19]): 22.2 days; MST (Plasmodium gallinaceum [20]): 15.2 days; MST (Plasmodium gallinaceum [21]): 10.4 days
Nc1nc(N)c2cc(Sc3c(F)c(F)cc(F)c3F)ccc2n1	< 0.25 µg/mL	< 0.25 µg/mL	< 0.25 µg/mL	> 25 µg/mL	2 µg/mL (≈ 5.88 µM)	15 µg/mL (≈ 44.1 µM)	Active	Active	Active	Active	8.9 days	6.1 days	2.7 days	0.5 days	Active	Active	Active	Active	–	–	MST (Plasmodium gallinaceum [24]): 2.7 days; Activity (Plasmodium gallinaceum [25]): Active; MST (Plasmodium gallinaceum [26]): 1.7 days; Activity (Plasmodium gallinaceum [27]): Active; MST (Plasmodium berghei [28]): 14.9 days; MST (Plasmodium berghei [29]): 0.3 days; MST (Plasmodium berghei [30]): 0.3 days
Cc1ccccc1Sc1ccc2nc(N)nc(N)c2c1	< 0.25 µg/mL	< 0.25 µg/mL	< 0.25 µg/mL	> 25 µg/mL	< 0.25 µg/mL	1 µg/mL (≈ 3.54 µM)	–	–	–	–	–	17 days	10.5 days	9.9 days	Active	Active	Active	Active	7.6 days	6.6 days	Activity (Plasmodium gallinaceum [1]): Active; Activity (Plasmodium gallinaceum [31]): Active; MST (Plasmodium berghei [29]): 7.3 days; MST (Plasmodium berghei [30]): 5.5 days; MST (Plasmodium berghei [32]): 1.1 days; Activity (Plasmodium berghei [33]): Active; Activity (Mus musculus): Toxic; SD90 (Plasmodium berghei [16]): 4.1 mg/kg/day; Ratio (Plasmodium berghei [17]): 18; MST (Plasmodium gallinaceum [18]): 16 days; MST (Plasmodium gallinaceum [19]): 17 days; MST (Plasmodium gallinaceum [20]): 12 days; MST (Plasmodium gallinaceum [21]): 11 days; MST (Plasmodium gallinaceum [34]): 2.4 days; MST (Plasmodium gallinaceum [35]): 0 days; MST (Plasmodium gallinaceum [36]): 0 days; MST (Plasmodium gallinaceum [37]): 0 days
Nc1nc(N)c2cc(Sc3ccc(O)cc3)ccc2n1	< 0.25 µg/mL	< 0.25 µg/mL	< 0.25 µg/mL	20 µg/mL (≈ 70.3 µM)	2.5 µg/mL (≈ 8.79 µM)	15 µg/mL (≈ 52.8 µM)	Active	Active	Active	Active	10.9 days	11.9 days	6.3 days	2.9 days	Active	Active	Active	Active	–	–	MIC [38]: > 25 µg/mL; Activity (Plasmodium gallinaceum [25]): Active; MST (Plasmodium gallinaceum [26]): 4.7 days; Activity (Plasmodium gallinaceum [27]): Active; MST (Plasmodium berghei [28]): 13.6 days
Nc1nc(N)c2cc(Sc3cccc4ccccc34)ccc2n1	10 µg/mL (≈ 31.4 µM)	2.5 µg/mL (≈ 7.85 µM)	5 µg/mL (≈ 15.7 µM)	> 25 µg/mL	15 µg/mL (≈ 47.1 µM)	20 µg/mL (≈ 62.8 µM)	–	–	–	–	18.4 days	14.5 days	10.7 days	7.9 days	Active	Active	Active	Active	17.4 days	12.4 days	MIC [38]: > 25 µg/mL; MST (Plasmodium berghei [29]): 1.9 days; MST (Plasmodium berghei [30]): 1.1 days; MST (Plasmodium berghei [32]): 0.5 days; MST (Plasmodium gallinaceum [34]): 11.8 days; MST (Plasmodium gallinaceum [35]): 9 days; MST (Plasmodium gallinaceum [36]): 7.2 days; MST (Plasmodium gallinaceum [37]): 2.2 days
Nc1nc(N)c2c(Cl)c(Sc3ccc(F)cc3)ccc2n1	< 0.25 µg/mL	< 0.25 µg/mL	< 0.25 µg/mL	> 25 µg/mL	< 0.25 µg/mL	< 0.25 µg/mL	–	–	–	–	–	15.6 days	6.9 days	–	Active	Active	Active	Active	–	–	MIC [38]: 5 µg/mL (≈ 15.6 µM); Activity (Plasmodium berghei [33]): Active; Activity (Mus musculus): Toxic
